The source of these data is ChEMBL document CHEMBL4725294, “Centrally Active Multitarget Anti-Alzheimer Agents Derived from the Antioxidant Lead CR-6” (J Med Chem, 2020).

In one data set the target is Beta-secretase 1 (Homo sapiens, UniProt P56817). The data set is described as follows: Inhibition human BACE1 expressed in baculovirus expression system using Panvera peptide as substrate measured after 60 mins by fluorescence assay. The settings on record: read-out: IC50.
The nature of data set [1]: Acute toxicity in C57BL6/J mouse at 5 to 10 mg/kg, ip measured up to 24 hrs. The settings on record: in vivo, dose 5-10 mg/kg. Format: organism-based.
Data set [2] in a line: Acute toxicity in C57BL6/J mouse assessed as reduction in locomotor activity at 15 mg/kg, ip measured after 10 to 15 mins. The settings on record: in vivo, time 10-15 min. Type of data set: organism-based.
Data set [3] is described as follows: Acute toxicity in C57BL6/J mouse assessed as piloerection at 15 mg/kg, ip measured after 10 to 15 mins. Format: organism-based. As to conditions: in vivo, time 10-15 min.
Data set [4] can be described thus: Acute toxicity in C57BL6/J mouse assessed as ptosis at 15 mg/kg, ip measured after 10 to 15 mins. As to conditions: in vivo, time 10-15 min. Type of data set: organism-based.
Data set [5] in a line: Acute toxicity in C57BL6/J mouse assessed as tremor at 15 mg/kg, ip measured after 10 to 15 mins. Type of data set: organism-based. The settings on record: in vivo, time 10-15 min.
Data set [6] can be described thus: Acute toxicity in C57BL6/J mouse at 15 mg/kg, ip measured after 3 hrs. Type of data set: organism-based. The settings on record: in vivo.
For data set [7], the system named is Mus musculus. Nature of the data set: Improvement in memory impairment in APP/PS1 double mutant-transgenic C57BL6/J mouse model assessed as […] at 10 mg/kg/day, ip for 4 weeks followed by compound washout by maze two-object recognition test. Type of data set: functional, organism-based.
Data set [8] relates to Mus musculus. The data set is described as follows: Antialzheimer activity in APP/PS1 double mutant-transgenic C57BL6/J mouse model assessed as reduction in amyloid beta burden in cortex at 10 mg/kg/day, ip for 4 weeks followed by compound washout and measured after 24 hrs by hematoxylin staining based microscopic analysis. Format: functional, organism-based.
Data set [9] concerns Mus musculus. The data set is described as follows: Antialzheimer activity in APP/PS1 double mutant-transgenic C57BL6/J mouse model assessed as reduction in soluble amyloid beta 40 level in cortex at 10 mg/kg/day, ip for 4 weeks followed by compound washout and measured after 24 hrs by ELISA. Type of data set: functional, organism-based.
Data set [10] deals with Mus musculus. Nature of the data set: Antialzheimer activity in APP/PS1 double mutant-transgenic C57BL6/J mouse model assessed as reduction in soluble amyloid beta 42 level in cortex at 10 mg/kg/day, ip for 4 weeks followed by compound washout and measured after 24 hrs by ELISA. Type of data set: functional, organism-based.
The subject of data set [11] is Mus musculus. Nature of the data set: Antialzheimer activity in APP/PS1 double mutant-transgenic C57BL6/J mouse model assessed as increase in Adam10 gene expression at 10 mg/kg/day, ip for 4 weeks followed by compound washout and measured after 24 hrs by qPCR analysis. Type of data set: functional, organism-based.
Data set [12] has as its system Mus musculus. The data set is described as follows: Antialzheimer activity in APP/PS1 double mutant-transgenic C57BL6/J mouse model assessed as reduction in Bace1 gene expression at 10 mg/kg/day, ip for 4 weeks followed by compound washout and measured after 24 hrs by qPCR analysis. Type of data set: functional, organism-based.
The subject of data set [13] is Mus musculus. The data set is described as follows: Antialzheimer activity in APP/PS1 double mutant-transgenic C57BL6/J mouse model assessed as increase in Adam10 expression at 10 mg/kg/day, ip for 4 weeks followed by compound washout and measured after 24 hrs by Western blot analysis. Type of data set: functional, organism-based.
The test system of data set [14] is Mus musculus. Nature of the data set: Antialzheimer activity in APP/PS1 double mutant-transgenic C57BL6/J mouse model assessed as reduction in Bace1 expression at 10 mg/kg/day, ip for 4 weeks followed by compound washout and measured after 24 hrs by Western blot analysis. Format: functional, organism-based.
Data set [15] has as its system Mus musculus. Nature of the data set: Antialzheimer activity in APP/PS1 double mutant-transgenic C57BL6/J mouse model assessed as reduction in oxidized protein level at 10 mg/kg/day, ip for 4 weeks followed by compound washout and measured after 24 hrs by Western blot analysis. Type of data set: functional, organism-based.
The subject of data set [16] is Mus musculus. The data set is described as follows: Antialzheimer activity in APP/PS1 double mutant-transgenic C57BL6/J mouse model assessed as increase in SOD2 level at 10 mg/kg/day, ip for 4 weeks followed by compound washout and measured after 24 hrs by double immunostaining assay. Type of data set: functional, organism-based.
The test system of data set [17] is Mus musculus. The data set is described as follows: Antialzheimer activity in APP/PS1 double mutant-transgenic C57BL6/J mouse model assessed as increase in Nrf2 level at 10 mg/kg/day, ip for 4 weeks followed by compound washout and measured after 24 hrs by Western blot analysis. Type of data set: functional, organism-based.
The subject of data set [18] is Mus musculus. Nature of the data set: Antialzheimer activity in APP/PS1 double mutant-transgenic C57BL6/J mouse model assessed as increase in GPX1 level at 10 mg/kg/day, ip for 4 weeks followed by compound washout and measured after 24 hrs by Western blot analysis. Type of data set: functional, organism-based.
A further data set deals with Acetylcholinesterase (Homo sapiens, UniProt P22303).
Another data set has as its target Cholinesterase (Homo sapiens, UniProt P06276).
The nature of the next data set: in vitro. The settings on record: PAMPA.

Calls of active or inactive are those of the source. The rule behind the calls is not given here.

Sequence of Acetylcholinesterase (P22303 whole entry): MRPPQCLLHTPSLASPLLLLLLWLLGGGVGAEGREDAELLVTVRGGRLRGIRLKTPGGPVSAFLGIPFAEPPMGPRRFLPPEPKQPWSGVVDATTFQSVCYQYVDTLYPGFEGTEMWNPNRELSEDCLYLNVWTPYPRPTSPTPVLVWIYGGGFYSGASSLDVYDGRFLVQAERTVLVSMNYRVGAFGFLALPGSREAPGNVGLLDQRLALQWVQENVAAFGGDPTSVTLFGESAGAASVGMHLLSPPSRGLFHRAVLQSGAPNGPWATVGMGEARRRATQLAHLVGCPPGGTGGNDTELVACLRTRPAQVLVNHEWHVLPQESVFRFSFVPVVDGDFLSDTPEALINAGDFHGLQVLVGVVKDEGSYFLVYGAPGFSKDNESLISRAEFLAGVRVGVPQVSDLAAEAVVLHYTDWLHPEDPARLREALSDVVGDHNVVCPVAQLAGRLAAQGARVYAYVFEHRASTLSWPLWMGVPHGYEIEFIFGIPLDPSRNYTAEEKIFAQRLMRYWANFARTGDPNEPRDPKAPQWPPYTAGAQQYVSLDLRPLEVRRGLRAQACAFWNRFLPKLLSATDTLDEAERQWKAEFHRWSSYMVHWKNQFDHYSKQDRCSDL
Sequence of Cholinesterase (P06276 whole entry): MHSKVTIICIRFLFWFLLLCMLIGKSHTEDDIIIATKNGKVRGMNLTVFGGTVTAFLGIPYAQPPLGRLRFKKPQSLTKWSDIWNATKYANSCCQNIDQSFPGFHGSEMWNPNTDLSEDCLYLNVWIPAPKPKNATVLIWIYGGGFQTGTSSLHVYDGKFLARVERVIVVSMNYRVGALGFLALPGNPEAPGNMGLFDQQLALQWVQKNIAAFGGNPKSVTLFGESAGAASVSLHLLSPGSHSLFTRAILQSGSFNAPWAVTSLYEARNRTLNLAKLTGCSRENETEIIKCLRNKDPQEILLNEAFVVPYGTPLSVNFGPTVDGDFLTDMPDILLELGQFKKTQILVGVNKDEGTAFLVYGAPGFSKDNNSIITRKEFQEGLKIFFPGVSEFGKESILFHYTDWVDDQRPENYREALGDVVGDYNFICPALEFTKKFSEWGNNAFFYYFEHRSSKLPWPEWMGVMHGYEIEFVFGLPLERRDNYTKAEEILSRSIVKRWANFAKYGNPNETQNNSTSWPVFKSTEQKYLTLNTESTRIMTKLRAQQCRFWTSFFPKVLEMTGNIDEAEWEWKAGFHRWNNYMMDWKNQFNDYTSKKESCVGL
Sequence of Beta-secretase 1 (P56817 whole entry): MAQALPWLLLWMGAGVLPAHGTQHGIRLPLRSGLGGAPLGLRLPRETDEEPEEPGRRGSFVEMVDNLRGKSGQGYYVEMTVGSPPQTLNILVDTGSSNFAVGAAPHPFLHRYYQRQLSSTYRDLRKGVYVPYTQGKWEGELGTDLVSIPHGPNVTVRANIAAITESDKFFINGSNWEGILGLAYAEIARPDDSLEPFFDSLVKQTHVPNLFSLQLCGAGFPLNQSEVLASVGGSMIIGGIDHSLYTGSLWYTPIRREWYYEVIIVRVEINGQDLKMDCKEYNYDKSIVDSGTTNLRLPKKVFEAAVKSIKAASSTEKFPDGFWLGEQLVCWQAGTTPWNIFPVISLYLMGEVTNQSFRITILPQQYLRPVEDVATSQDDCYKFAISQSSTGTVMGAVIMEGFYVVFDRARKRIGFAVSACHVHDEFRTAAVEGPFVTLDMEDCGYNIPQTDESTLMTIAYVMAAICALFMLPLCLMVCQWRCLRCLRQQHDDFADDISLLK
Description for Acetylcholinesterase: Inhibition of recombinant human AChE expressed in HEK293 cells using acetylthiocholine iodide as substrate preincubated for 15 mins followed by substrate addition by Ellman's method
Description for in vitro: Permeability of compound in PBS/EtOH buffer (7:3) PAMPA-BBB assay

For the compound `COc1cc2c(cc1OCc1ccccc1)CCC(C)(CC(=O)NCCCCCCCCNc1c3c(nc4cc(Cl)ccc14)CCCC3)O2` (configuration not stated), the half-maximal inhibitory concentration (IC50) at Beta-secretase 1 turned out to be 8310 nM; at Acetylcholinesterase, 10.4 nM; on Cholinesterase, 100 nM. In addition, the Activity entry in data set [1] was “Non-Toxic”; in data set [2] it was “Toxic”; in [3], “Toxic”; in [4], “Toxic”; in data set [5], “Toxic”; in data set [6], “Non-Toxic”. Also, the outcome with Mus musculus [7], in the data set on Mus musculus [8], with Mus musculus [9], with Mus musculus [10], in the data set with Mus musculus [14] and in the data set with Mus musculus [15] was inactive. Further, the result in the data set with Mus musculus [16], with Mus musculus [17] and in the data set with Mus musculus [18] was inactive. The result in the data set with Mus musculus [11], in the data set with Mus musculus [12] and in the data set with Mus musculus [13] was Active. Moreover, the Papp in the data set “in vitro” was 12.3 ×10⁻⁶ cm/s.
